What is called EC50 is the concentration needed to bring the measured effect to its halfway point.

The test deals with HT-1080 cells. The experiment in a line: HT-1080 cell viability assay (ferroptosis induced by RSL3, Cell Titer-Glo). It counts as cell-based. The following applies: Homo sapiens, HT-1080, 20 h, ferroptosis inducer RSL3, 20 hours, ferroptosis inhibitory activity, Table 3. In outline: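 EC50 fitted by sigmoidal dose-response regression on luminescent viability data normalized to untreated cells. Compounds ran as a 10-point, 3-fold series from 1.1 μM alongside RSL3 for 20 hours, after overnight seeding.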
In turn, `CCc1cc(N2C[C@@H](C)O[C@@H](C)C2)ccc1NC1CC2(CC(N)C2)C1` (stereo partly drawn) [Compound 640, N2-(4-((25,6R)-2,6-dimethylmorpholino)-2-ethylphenyl)spiro[3.3]heptane-2,6-diamine] returned an EC50 of 0.0001 to 0.1 µM.

As for `Cc1nc(N2CC(C)N(CC(F)(F)F)C(C)C2)c(F)cc1NC1CC2(CC(N)C2)C1` (stereo not drawn) [Compound 641, N^2-(6-(3,5-dimethyl-4-(2,2,2-trifluoroethyl)piperazin-1-yl)-5-fluoro-2-methylpyridin-3-yl)spiro [3.3]heptane-2,6-diamine], the EC50 was in the range of 0.0001 to 0.1 µM.

Turning to `Cc1nc(N2CC(C)N(C(=O)C(F)(F)F)C(C)C2)ccc1NC1CC2CCC(C1)N2` (stereo not drawn) [Compound 642, 1-(4-(5-((8-azabicyclo[3.2.1]octan-3-yl)amino)-6-methylpyridin-2-yl)-2,6-dimethylpiperazin-1-yl)-2,2,2-trifluoroethan-1-one], the EC50 is 0.0001 to 0.1 µM.

`Cc1nc(N2CC(C)N(CC(F)(F)F)C(C)C2)ccc1NC1CC2CCC(C1)N2` (stereo not drawn) [Compound 643, N-(6-(3,5-dimethyl-4-(2,2,2-trifluoroethyl)piperazin-1-yl)-2-methylpyridin-3-yl)-8-azabicyclo[3.2.1]octan-3-amine] showed an EC50 of 0.0001 to 0.1 µM.

The molecule `Cc1cc(N2CC(C)N(C(=O)C(F)(F)F)C(C)C2)ccc1NC1CC2(CC(N)C2)C1` (stereo not drawn) [Compound 644, 1-(4-(4-((6-aminospiro[3.3]heptan-2-yl)amino)-3-methylphenyl)-2,6-dimethylpiperazin-1-yl)-2,2,2-trifluoroethan-1-one] returned an EC50 of 0.0001 to 0.1 µM.

Consider `[2H]C1(Nc2ccc(N3C[C@@H](C)O[C@@H](C)C3)nc2C)CC2(CC(N)C2)C1` (stereo partly drawn) [Compound 645], for which the EC50 was in the range of 0.0001 to 0.1 µM.

Turning to `CC1(C)CN(c2ccc3cc(NC4CC5(CC(N)C5)C4)ccc3n2)CC(C)(C)O1` (stereo not drawn) [Compound 646, N2-(2-(2,2,6,6-tetramethylmorpholino)quinolin-6-yl)spiro[3.3]heptane-2,6-diamine], the EC50 lay within 0.0001 to 0.1 µM.

Molecule `Cc1cc(NC2CC3(CC(N)C3)C2)ccc1N1CC(C)N(C(=O)C(F)(F)F)C(C)C1` (stereo not drawn) [Compound 647, 1-(4-(4-((6-aminospiro[3.3]heptan-2-yl)amino)-2-methylphenyl)-2,6-dimethylpiperazin-1-yl)-2,2,2-trifluoroethan-1-one] showed an EC50 of 0.0001 to 0.1 µM.

`CC1CN(c2ccc3cc(NC4CC5(CC(N)C5)C4)ccc3c2)CCO1` (stereo not drawn) [Compound 648] had an EC50 of 0.0001 to 0.1 µM.

As to `C[C@@H]1CN(c2ccc3cc(NC4CC(CN)C4)ccc3c2)C[C@H](C)O1` (stereo partly drawn) [Compound 649, N-(3-(aminomethyl)cyclobutyl)-6-((2S,6R)-2,6-dimethylmorpholino) naphthalen-2-amine], the EC50 lay within 0.0001 to 0.1 µM.

`COCCNc1ccc2cc(NC3CC4(CC(N)C4)C3)ccc2c1` (stereo not drawn) [Compound 650, N2-(6-aminospiro [3.3]heptan-2-yl)-N6-(2-methoxyethyl) naphthalene-2,6-diamine] showed an EC50 of 0.0001 to 0.1 µM.

For `CCCNc1ccc2cc(NC3CC4(CC(N)C4)C3)ccc2c1` (stereo not drawn) [Compound 651, N^2-(6-aminospiro [3.3]heptan-2-yl)-N^6-propylnaphthalene-2,6-diamine], the concentration giving a half-maximal response (EC50) lay within 0.0001 to 0.1 µM.

`NC1CC2(C1)CC(Nc1ccc3cc(N4CCOC(C(F)(F)F)C4)ccc3c1)C2` (stereo not drawn) [Compound 653, N2-(6-(2-(trifluoromethyl)morpholino)naphthalen-2-yl)spiro[3.3]heptane-2,6-diamine] showed an EC50 of 0.0001 to 0.1 µM.

`CN(CC(F)(F)F)c1ccc2cc(NC3CC(N)C3)ccc2c1` (stereo not drawn) [Compound 654] displayed an EC50 of 0.0001 to 0.1 µM.

The molecule `CN(CC(F)(F)F)c1ccc2cc(NC3CC(N)C3)ccc2n1` (stereo not drawn) [Compound 655, N^6-(3-aminocyclobutyl)-N^2-methyl-N^2-(2,2,2-trifluoroethyl) quinoline-2,6-diamine] had an EC50 of 0.0001 to 0.1 µM.

`Cc1nc(N(C)CC(F)(F)F)ccc1NC1CC2CCC(C1)N2` (stereo not drawn) [Compound 656, N^5-(8-azabicyclo[3.2.1]octan-3-yl)-N^2,6-dimethyl-N^2-(2,2,2-trifluoroethyl)pyridine-2,5-diamine] displayed an EC50 of 0.0001 to 0.1 µM.

In turn, `CC[C@@H]1CN(c2ccc(NC3CC4CCC(C3)N4)c(C)n2)C[C@H](CC)O1` (stereo partly drawn) [Compound 657, N-(6-((2S,6R)-2,6-diethylmorpholino)-2-methylpyridin-3-yl)-8-azabicyclo[3.2.1]octan-3-amine] had an EC50 of 0.0001 to 0.1 µM.

For the molecule `CCNc1ccc2cc(NC3CC4(CC(N)C4)C3)ccc2c1` (stereo not drawn) [Compound 658, N2-(6-aminospiro[3.3]heptan-2-yl)-N^6-ethylnaphthalene-2,6-diamine], the EC50 fell in the range of 0.0001 to 0.1 µM.

Molecule `CCc1nc(N2CC(C)OC(C(F)(F)F)C2)ccc1NC1CC2(CC(N)C2)C1` (stereo not drawn) [Compound 659, N2-(2-ethyl-6-(2-methyl-6-(trifluoromethyl)morpholino)pyridin-3-yl)spiro[3.3]heptane-2,6-diamine] gave an EC50 of 0.0001 to 0.1 µM.

As to `COCCN(CC(F)(F)F)c1ccc(NC2CC3(CC(N)C3)C2)c(C)n1` (stereo not drawn) [Compound 660, N^5-(6-aminospiro[3.3]heptan-2-yl)-N^2-(2-methoxyethyl)-6-methyl-N2-(2,2,2-trifluoroethyl)pyridine-2,5-diamine], the EC50 was in the range of 0.0001 to 0.1 µM.

In the case of `CC1CN(c2ccc3cc(NC4CC(N)C4(C)C)ccc3c2)CCO1` (stereo not drawn) [Compound 661], the EC50 lay in the range of 0.0001 to 0.1 µM.
